In patent US20110028422A1 (priority 2007, published 2011):

Key:
CLL lymphocytes = experiment: MTT cytotoxic assay, CLB sensitization (Example I); assay type: cell-based, human; conditions: MTT 72 h
Method: Aliquots containing 1×10^6 cells/ml are sent for T-lymphocyte analysis. The percentage of contaminating T lymphocytes is determined using fluorescence-activated cell sorting analysis with CD3 antibody. […] A-2) Plating Efficiency and Dosing. […] Only dose responses with linear plating efficiencies are analyzed. […] A-3) Cytotoxic Assay. […] The percentage of surviving cells after treatment respect to vehicle treated cells (control) is calculated as (OD treated cells/OD untreated cells)×100. […] A-4) Statistical Analysis Differences between mean values is assessed by two tailed t-test. Correlation and linear regression analysis are performed using the EXCEL Statistical Tool Package.

H2AX = experiment: CLB-induced H2AX; assay type: cell-based
NFκB pathway = NFκB pathway regulation; assay type: cell-based; conditions: c-abl inhibition; B-CLL lymphocytes

Cc1cn(-c2cc(NC(=O)c3ccc(C)c(Nc4nccc(-c5cccnc5)n4)c3)cc(C(F)(F)F)c2)cn1 [Nilotinib, 4-methyl-3-[[4-(3-pyridinyl)-2-pyrimidinyl]amino]-N-[5-(4-methyl-1H-imidazol-1-yl)-3-(trifluoromethyl)phenyl]benzamide]
samples in which potency in sensitizing CLL lymphocytes towards chlorambucil was greater than imatinib (CLL lymphocytes): 16/19
CLB-induced □ H2AX (H2AX): increased
NFκB pathway (NFκB pathway): down regulation
